Measurements: patent publication US20070060604A1, “Antibiotic pharmaceutical composition with lysergol as bio-enhancer and method of treatment” (COUNCIL OF SCIENTIFIC AND INDUSTRIAL RESEARCH, priority 2002, published 2007)

How the values were obtained:
[1] = tested on: Escherichia coli (ATCC 10536); assay: Broth assay of killing action of antibiotic alone and with lysergol (viable cell count); conditions: E. coli
[2] = tested on: Bacillus subtilis (ATCC 6051); assay: as above; conditions: B. subtilis; antibiotic 0.4 μg/ml
[3] = tested on: Mycobacterium smegmatis (ATCC 14468); assay: as above; conditions: M. smegmatis; antibiotic 0.2 μg/ml
bacteria = assay: Growth of bacteria in presence of lysergol alone; type: cell-based; conditions: bacteria grown in presence of lysergol alone
Description: 1. […] Process for the Isolation of Lysergol

| SMILES | Survival fraction of viable cells upon treatment with antibiotic alone ([1]; antibiotic 10 μg/ml) | Survival fraction of viable cells upon treatment with antibiotic alone ([1]; antibiotic 20 μg/ml) | Survival fraction of viable cells upon treatment with antibiotic alone [2] | Survival fraction of viable cells upon treatment with antibiotic alone [3] | Killing of bacteria by the compound as such (bacteria) |
| --- | --- | --- | --- | --- | --- |
| CO[C@H]1/C=C/O[C@@]2(C)Oc3c(C)c(O)c4c(O)c(c(/C=N/N5CCN(C)CC5)c(O)c4c3C2=O)NC(=O)/C(C)=C\C=C\[C@H](C)[C@H](O)[C@@H](C)[C@@H](O)[C@@H](C)[C@H](OC(C)=O)[C@@H]1C [Rifampicin] | 0.35-0.45 | 0.25-0.30 | 0.085-0.096 | 0.45-0.54 |  |
| CN1C[C@H](CO)C=C2c3cccc4[nH]cc(c34)C[C@H]21 [lysergol, 9,10-Didehydro-6-methylergoline-8-[…]-methanol] |  |  |  |  | no significant killing |
